Data published in the NIST ThermoML archive (doi:10.1021/je8007843).
± gives the expanded uncertainty stated by the source.

Settings: Crystal; visual observation

Nc1ccccn1 [2-pyridinamine]
Normal melting temperature: 57.6 ± 0.6 °C

Nc1cccc(N)n1 [pyridine-2,6-diamine]
Normal melting temperature: 121.7 ± 1.2 °C
